Data as given in patent US9801901B2, “Alginate oligomers for use in overcoming multidrug resistance in bacteria” (priority 2009, dated 2017).
≈ marks a conversion by molar mass, not a printed value. Read-outs that look alike come from different tables or passages of the source. Marks after values point to notes of the source that are not given here.

Legend:
[1] = system: PA01 Pseudomonas aeruginosa ATCC 15692; assay: MIC assay, two-fold antibiotic dilutions in CAMHB with alginate oligomer, no visible growth; assay type: cell-based; details: Pseudomonas aeruginosa, ATCC15692, Table 1, PA01, read-out: MIC
[2] = system: Pseudomonas aeruginosa ATCC 39324, mucoid type strain (R79); assay: MIC assay, CAMHB with alginate oligomer, no visible growth; assay type: cell-based; details: Pseudomonas aeruginosa, ATCC39324, Table 1, R79, read-out: MIC
[3] = system: Pseudomonas aeruginosa MDR R22 from China (V1); assay: as above; assay type: cell-based; details: for MIC: Pseudomonas aeruginosa, Table 1, V1 MDR R22 PA, read-out: MIC
From the text: The study described in Example 1 was repeated with the following strains of bacteria and antibiotics as detailed in Tables 4, 5 and 6.

[4] = system: Pseudomonas aeruginosa MDR 301 from Poland (V2); assay: as above; assay type: cell-based; details: Pseudomonas aeruginosa, Table 1, V2 MDR 301 PA, read-out: MIC
[5] = system: V9 (Egypt) Acinetobacter baumannii; assay: as above; assay type: cell-based; details: Table 5, V9 MDR Acin. baum
[6] = system: V11 5702 (Wales) E. coli; assay: as above; assay type: cell-based; details: Table 5, V11 MDR E.coli
[7] = system: V12 5725 (Wales) Klebsiella pneumoniae; assay: as above; assay type: cell-based; details: Table 5, V12 MDR Kleb pneu
[8] = system: V22 6056 Acinetobacter; assay: as above; assay type: cell-based, Acinetobacter lwoffii; details: Table 5, V22 MDR Acin. lwoff
[9] = system: strains of Klebsiella pneumoniae displaying MDR phenotypes; assay: MIC-assay, Mueller-Hinton broth with G-block alginate, 384-well, OD600 (Table 10); assay type: cell-based; details: read-out: MIC
From the text: Minimum inhibitory concentration (MICs) of different antibiotics for strains of Klebsiella pneumoniae displaying MDR phenotypes in the presence of varying concentrations of OligoCF-5/20 (0-10%). (MIC values are expressed in μg ml^−1).

[10] = system: strains of E. coli displaying MDR phenotypes; assay: MIC-assay, Mueller-Hinton broth with G-block alginate, 384-well, OD600 (Table 11); assay type: cell-based; details: Escherichia coli, Escherichia coli (5702, Wales, V11) MDR, read-out: MIC
From the text: Minimum inhibitory concentration (MICs) of different antibiotics for strains of E. coli and Providencia stuartii displaying MDR phenotypes in the presence of varying concentrations of OligoCF-5/20 (0-10%). (MIC values are expressed in μg ml^−1).

[11] = system: Burkholderia cepacia (1322, V23); assay: MIC-assay, Mueller-Hinton broth with G-block alginate, 384-well, OD600
[12] = system: Burkholderia cepacia (LMG18941, ATCC-BAA-246); assay: as above
[13] = system: Acinetobacter lwoffii (6056, V22); assay: as above
[14] = system: Acinetobacter baumannii (Egypt, V9); assay: as above
[15] = system: Acinetobacter lwoffii (Egypt, V10); assay: as above
[16] = Klebsiella pneumoniae, OligoCF-5/20 0G, read-out: MIC
[17] = Acinetobacter, OligoCF-5/20 0G, read-out: MIC
[18] = Table 9, G-block (OligoCF-5/20) 0%
[19] = Table 9, G-block (OligoCF-5/20) 2%
[20] = Table 9, G-block (OligoCF-5/20) 6%
[21] = Table 9, G-block (OligoCF-5/20) 10%

C[C@@H](O)[C@H]1C(=O)N2C(C(=O)O)=C(S[C@@H]3CN[C@H](C(=O)N(C)C)C3)[C@H](C)[C@H]12 [Meropenem]
MIC ([1]; OligoCF-5/20 0G): 2 µg/mL (≈ 5.22 µM)
MIC ([1]; OligoCF-5/20 +2% G): 2 µg/mL (≈ 5.22 µM)
MIC ([1]; OligoCF-5/20 +6% G): < 1 µg/mL
MIC ([1]; OligoCF-5/20 +10% G): < 1 µg/mL
MIC ([2]; OligoCF-5/20 0G): < 1 µg/mL
MIC ([2]; OligoCF-5/20 +2% G): < 1 µg/mL
MIC ([2]; OligoCF-5/20 +6% G): < 1 µg/mL
MIC ([2]; OligoCF-5/20 +10% G): < 1 µg/mL
MIC ([3]; OligoCF-5/20 0G): 32 µg/mL (≈ 83.4 µM)
MIC ([3]; OligoCF-5/20 +2% G): 32 µg/mL (≈ 83.4 µM)
MIC ([3]; OligoCF-5/20 +6% G): 16 µg/mL (≈ 41.7 µM)
MIC ([3]; OligoCF-5/20 +10% G): 4 µg/mL (≈ 10.4 µM)
MIC ([4]; OligoCF-5/20 0G): 64 µg/mL (≈ 167 µM)
MIC ([4]; OligoCF-5/20 +2% G): 64 µg/mL (≈ 167 µM)
MIC ([5]; Acinetobacter baumannii, OligoCF-5/20 0G, read-out: MIC): 16 µg/mL (≈ 41.7 µM)
MIC ([5]; OligoCF-5/20 +2% G): 8^† μg/ml
MIC ([5]; OligoCF-5/20 +6% G): 8^† μg/ml
MIC ([5]; OligoCF-5/20 +10% G): 4^† μg/ml
MIC ([6]; Escherichia coli, OligoCF-5/20 0G, read-out: MIC): < 0.25 µg/mL
MIC ([6]; OligoCF-5/20 +2% G): <0.25 µg/mL
MIC ([6]; OligoCF-5/20 +6% G): <0.25 µg/mL
MIC ([6]; OligoCF-5/20 +10% G): <0.25 µg/mL
MIC [7, 16]: < 0.25 µg/mL
MIC ([7]; OligoCF-5/20 +2% G): <0.25 µg/mL
MIC ([7]; OligoCF-5/20 +6% G): <0.25 µg/mL
MIC ([7]; OligoCF-5/20 +10% G): <0.25 µg/mL
MIC [8, 17]: 256 µg/mL (≈ 668 µM)
MIC ([8]; OligoCF-5/20 +10% G): 64^† μg/ml

O=C(O)c1cn(C2CC2)c2cc(N3CCNCC3)c(F)cc2c1=O [Ciprofloxacin]
MIC ([1]; OligoCF-5/20 +2% G): 0.0625 µg/mL (≈ 0.189 µM)
MIC ([1]; OligoCF-5/20 +6% G): 0.0625 µg/mL (≈ 0.189 µM)
MIC ([1]; OligoCF-5/20 +10% G): 0.0312 µg/mL (≈ 0.0943 µM)
MIC ([2]; OligoCF-5/20 +2% G): 0.0625 µg/mL (≈ 0.189 µM)
MIC ([2]; OligoCF-5/20 +6% G): 0.0312 µg/mL (≈ 0.0943 µM)
MIC ([2]; OligoCF-5/20 +10% G): 0.0312 µg/mL (≈ 0.0943 µM)
MIC ([3]; OligoCF-5/20 0G): 16 µg/mL (≈ 48.3 µM)
MIC ([3]; OligoCF-5/20 +2% G): 16 µg/mL (≈ 48.3 µM)
MIC ([3]; OligoCF-5/20 +6% G): 8 µg/mL (≈ 24.1 µM)
MIC ([3]; OligoCF-5/20 +10% G): 4 µg/mL (≈ 12.1 µM)
change of MIC in combination with azithromycin by alginate oligomer ([3]; Table 3, MDR R22 PA strain): reduced
MIC ([4]; OligoCF-5/20 0G): 16 µg/mL (≈ 48.3 µM)
MIC ([4]; OligoCF-5/20 +2% G): 16 µg/mL (≈ 48.3 µM)
MIC ([4]; OligoCF-5/20 +6% G): 8 µg/mL (≈ 24.1 µM)
MIC ([4]; OligoCF-5/20 +10% G): 8 µg/mL (≈ 24.1 µM)
MIC ([5]; OligoCF-5/20 0G): -64^† μg/ml
MIC ([5]; OligoCF-5/20 +2% G): 32^† μg/ml
MIC ([5]; OligoCF-5/20 +6% G): 32^† μg/ml
MIC ([5]; OligoCF-5/20 +10% G): 32^† μg/ml
MIC ([6]; OligoCF-5/20 +2% G): 64^† μg/ml
MIC [7, 16]: 64 µg/mL (≈ 193 µM)
MIC ([7]; OligoCF-5/20 +2% G): 64 µg/mL (≈ 193 µM)
MIC ([7]; OligoCF-5/20 +6% G): 256^‡ μg/ml
MIC ([7]; OligoCF-5/20 +10% G): 256^‡ μg/ml
MIC [8, 17]: < 0.25 µg/mL
MIC ([9]; Klebsiella pneumoniae (5712, Wales, V12) MDR, G-block (OligoCF-5/20) 0%): > 8 µg/mL
MIC ([9]; Klebsiella pneumoniae (5712, Wales, V12) MDR, G-block (OligoCF-5/20) 2%): > 8 µg/mL
MIC ([9]; Klebsiella pneumoniae (5712, Wales, V12) MDR, G-block (OligoCF-5/20) 6%): > 8 µg/mL
MIC ([9]; Klebsiella pneumoniae (5712, Wales, V12) MDR, G-block (OligoCF-5/20) 10%): > 8 µg/mL
MIC ([9]; Klebsiella pneumoniae (IR25, India, V6) MDR, G-block (OligoCF-5/20) 2%): 64 µg/mL (≈ 193 µM)
MIC ([9]; Klebsiella pneumoniae (IR25, India, V6) MDR, G-block (OligoCF-5/20) 6%): 64 µg/mL (≈ 193 µM)
MIC ([9]; Klebsiella pneumoniae (IR25, India, V6) MDR, G-block (OligoCF-5/20) 10%): 64 µg/mL (≈ 193 µM)
MIC ([9]; Klebsiella pneumoniae (K3, India, V8) MDR, G-block (OligoCF-5/20) 0%): 32 µg/mL (≈ 96.6 µM)
MIC ([9]; Klebsiella pneumoniae (K3, India, V8) MDR, G-block (OligoCF-5/20) 2%): 32 µg/mL (≈ 96.6 µM)
MIC ([9]; Klebsiella pneumoniae (K3, India, V8) MDR, G-block (OligoCF-5/20) 6%): > 1020 µg/mL
MIC ([9]; Klebsiella pneumoniae (K3, India, V8) MDR, G-block (OligoCF-5/20) 10%): > 1020 µg/mL
MIC ([10]; G-block (OligoCF-5/20) 0%): > 8 µg/mL
MIC ([10]; G-block (OligoCF-5/20) 2%): > 8 µg/mL
MIC ([10]; G-block (OligoCF-5/20) 6%): > 8 µg/mL
MIC ([10]; G-block (OligoCF-5/20) 10%): > 8 µg/mL
MIC ([11]; Table 8, G-block (OligoCF-5/20) 0%): > 8 µg/mL
MIC ([11]; Table 8, G-block (OligoCF-5/20) 2%): > 8 µg/mL
MIC ([11]; Table 8, G-block (OligoCF-5/20) 6%): > 8 µg/mL
MIC ([11]; Table 8, G-block (OligoCF-5/20) 10%): > 8 µg/mL
MIC ([12]; ATCCBAA246|LMG18941, Table 8, G-block (OligoCF-5/20) 0%): > 8 µg/mL
MIC ([12]; ATCCBAA246|LMG18941, Table 8, G-block (OligoCF-5/20) 2%): > 8 µg/mL
MIC ([12]; ATCCBAA246|LMG18941, Table 8, G-block (OligoCF-5/20) 6%): > 8 µg/mL
MIC ([12]; ATCCBAA246|LMG18941, Table 8, G-block (OligoCF-5/20) 10%): > 8 µg/mL
MIC [13, 18]: < 2 µg/mL
MIC [13, 19]: < 2 µg/mL
MIC [13, 20]: < 2 µg/mL
MIC [13, 21]: < 2 µg/mL
MIC [14, 18]: > 8 µg/mL
MIC [14, 19]: > 8 µg/mL
MIC [14, 20]: 8 µg/mL (≈ 24.1 µM)
MIC [14, 21]: 8 µg/mL (≈ 24.1 µM)
MIC [15, 18]: 0.063 µg/mL (≈ 0.19 µM)
MIC [15, 19]: 0.031 µg/mL (≈ 0.0936 µM)
MIC [15, 20]: 0.031 µg/mL (≈ 0.0936 µM)
MIC [15, 21]: 0.031 µg/mL (≈ 0.0936 µM)
